Assay results: PubChem BioAssay (NCI)
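Cells were grown in 96-well plates and exposed to each compound for 48 hours at five concentrations; endpoints were interpolated linearly between bracketing concentrations, or set to the highest concentration if not reached. GI50: concentration for 50% inhibition of growth. At the TGI there is no net growth.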

What was measured:
Experiment in all cases: inhibition of tumour cell growth, NCI panel, 48 h
TK-10 renal = system: TK-10 renal
MCF7 breast = system: MCF7 breast
RXF 393 renal = system: RXF 393 renal
HCT-116 colon = system: HCT-116 colon
UACC-62 melanoma = system: UACC-62 melanoma
COLO 205 colon = system: COLO 205 colon
K-562 leukemia = system: K-562 leukemia
MOLT-4 leukemia = system: MOLT-4 leukemia
T-47D breast = system: T-47D breast
SR leukemia = system: SR leukemia
DU-145 prostate = system: DU-145 prostate
SK-MEL-28 melanoma = system: SK-MEL-28 melanoma
RPMI-8226 leukemia = system: RPMI-8226 leukemia
NCI/ADR-RES ovarian = system: NCI/ADR-RES ovarian
SN12C renal = system: SN12C renal
OVCAR-8 ovarian = system: OVCAR-8 ovarian
OVCAR-5 ovarian = system: OVCAR-5 ovarian
HOP-92 NSCLC = system: HOP-92 NSCLC
A498 renal = system: A498 renal
A549 NSCLC = system: A549 NSCLC
HL-60(TB) leukemia = system: HL-60(TB) leukemia
786-0 renal = system: 786-0 renal
SF-539 CNS = system: SF-539 CNS
SW-620 colon = system: SW-620 colon
PC-3 prostate = system: PC-3 prostate
NCI-H460 lung = system: NCI-H460 lung
MDA-MB-435 = system: MDA-MB-435
SF-268 CNS = system: SF-268 CNS
NCI-H23 lung = system: NCI-H23 lung
CAKI-1 renal = system: CAKI-1 renal
SF-295 CNS = system: SF-295 CNS
U251 CNS = system: U251 CNS
EKVX NSCLC = system: EKVX NSCLC
MDA-MB-231 breast = system: MDA-MB-231 breast
NCI-H226 lung = system: NCI-H226 lung
OVCAR-4 ovarian = system: OVCAR-4 ovarian
ACHN renal = system: ACHN renal
SNB-75 CNS = system: SNB-75 CNS
HOP-62 NSCLC = system: HOP-62 NSCLC
KM12 colon = system: KM12 colon
HCC-2998 colon = system: HCC-2998 colon
HCT-15 colon = system: HCT-15 colon
SNB-19 CNS = system: SNB-19 CNS
MDA-MB-468 breast = system: MDA-MB-468 breast
BT-549 breast = system: BT-549 breast
SK-MEL-5 melanoma = system: SK-MEL-5 melanoma
UACC-257 melanoma = system: UACC-257 melanoma
M14 melanoma = system: M14 melanoma
SK-OV-3 ovarian = system: SK-OV-3 ovarian
SK-MEL-2 melanoma = system: SK-MEL-2 melanoma
IGROV1 ovarian = system: IGROV1 ovarian
NCI-H522 lung = system: NCI-H522 lung
HS 578T breast = system: HS 578T breast
UO-31 renal = system: UO-31 renal
CCRF-CEM leukemia = system: CCRF-CEM leukemia
OVCAR-3 ovarian = system: OVCAR-3 ovarian
LOX IMVI melanoma = system: LOX IMVI melanoma
MALME-3M melanoma = system: MALME-3M melanoma
HT29 colon = system: HT29 colon

## N#C/C(=C1/C(=O)Nc2ccccc21)c1nnc(NC(=O)c2ccc(-n3c(=O)[nH]c4ccccc4c3=O)cc2)s1
TK-10 renal
  GI50: > 100 µM
  TGI: > 100 µM
MCF7 breast
  GI50: 18.3 µM
  TGI: > 100 µM
RXF 393 renal
  GI50: 14.5 µM
  TGI: > 100 µM
HCT-116 colon
  GI50: 32.6 µM
  TGI: > 100 µM
UACC-62 melanoma
  GI50: 47.4 µM
  TGI: > 100 µM
COLO 205 colon
  GI50: 22.1 µM
  TGI: 79.8 µM
K-562 leukemia
  GI50: 26.1 µM
  TGI: > 100 µM
MOLT-4 leukemia
  GI50: 20.7 µM
  TGI: 60.9 µM
T-47D breast
  GI50: 11.2 µM
  TGI: > 100 µM
SR leukemia
  GI50: 33.1 µM
  TGI: > 100 µM
DU-145 prostate
  GI50: 53.6 µM
  TGI: > 100 µM
SK-MEL-28 melanoma
  GI50: 65.9 µM
  TGI: > 100 µM
RPMI-8226 leukemia
  GI50: 27.1 µM
  TGI: > 100 µM
NCI/ADR-RES ovarian
  GI50: 33.8 µM
  TGI: > 100 µM
SN12C renal
  GI50: 58.3 µM
  TGI: > 100 µM
OVCAR-8 ovarian
  GI50: 67.6 µM
  TGI: > 100 µM
OVCAR-5 ovarian
  GI50: > 100 µM
  TGI: > 100 µM
HOP-92 NSCLC
  GI50: 33.8 µM
  TGI: > 100 µM
A498 renal
  GI50: > 100 µM
  TGI: > 100 µM
A549 NSCLC
  GI50: 54.7 µM
  TGI: > 100 µM
HL-60(TB) leukemia
  GI50: 13.6 µM
  TGI: 45.4 µM
786-0 renal
  GI50: > 100 µM
  TGI: > 100 µM
SF-539 CNS
  GI50: 48.3 µM
  TGI: > 100 µM
SW-620 colon
  GI50: 29.5 µM
  TGI: > 100 µM
PC-3 prostate
  GI50: 30.3 µM
  TGI: > 100 µM
NCI-H460 lung
  GI50: 26 µM
  TGI: > 100 µM
MDA-MB-435
  GI50: 17.2 µM
  TGI: 35.8 µM
SF-268 CNS
  GI50: 34.9 µM
  TGI: > 100 µM
NCI-H23 lung
  GI50: 45.2 µM
  TGI: > 100 µM
CAKI-1 renal
  GI50: 39 µM
  TGI: > 100 µM
SF-295 CNS
  GI50: 45.9 µM
  TGI: > 100 µM
U251 CNS
  GI50: > 100 µM
  TGI: > 100 µM
EKVX NSCLC
  GI50: 46.1 µM
  TGI: > 100 µM
MDA-MB-231 breast
  GI50: 38.4 µM
  TGI: > 100 µM
NCI-H226 lung
  GI50: 17.6 µM
  TGI: > 100 µM
OVCAR-4 ovarian
  GI50: 23.1 µM
  TGI: > 100 µM
ACHN renal
  GI50: 53.8 µM
  TGI: > 100 µM
SNB-75 CNS
  GI50: 16.2 µM
  TGI: > 100 µM
HOP-62 NSCLC
  GI50: > 100 µM
  TGI: > 100 µM
KM12 colon
  GI50: 33.4 µM
  TGI: > 100 µM
HCC-2998 colon
  GI50: 39.8 µM
  TGI: > 100 µM
HCT-15 colon
  GI50: 27.3 µM
  TGI: > 100 µM
SNB-19 CNS
  GI50: > 100 µM
  TGI: > 100 µM
MDA-MB-468 breast
  GI50: 11 µM
  TGI: 56.1 µM
BT-549 breast
  GI50: 39.4 µM
  TGI: > 100 µM
SK-MEL-5 melanoma
  GI50: 32.2 µM
  TGI: > 100 µM
UACC-257 melanoma
  GI50: 46.2 µM
  TGI: > 100 µM
M14 melanoma
  GI50: 41.2 µM
  TGI: > 100 µM
SK-OV-3 ovarian
  GI50: > 100 µM
  TGI: > 100 µM
SK-MEL-2 melanoma
  GI50: > 100 µM
  TGI: > 100 µM
IGROV1 ovarian
  GI50: 40.5 µM
  TGI: > 100 µM
NCI-H522 lung
  GI50: 13.2 µM
  TGI: 71.7 µM
HS 578T breast
  GI50: 27.4 µM
  TGI: > 100 µM
UO-31 renal
  GI50: 31.8 µM
  TGI: > 100 µM
CCRF-CEM leukemia
  GI50: 22.2 µM
  TGI: 64.5 µM
OVCAR-3 ovarian
  GI50: 10.9 µM
  TGI: 71.6 µM
LOX IMVI melanoma
  GI50: 21.6 µM
  TGI: > 100 µM
MALME-3M melanoma
  GI50: 45.6 µM
  TGI: > 100 µM
HT29 colon
  GI50: 31.7 µM
  TGI: > 100 µM
